≈ marks a conversion by molar mass, not a printed value. Read-outs that look alike come from different tables or passages of the source.
Legend:
[1] = system: P. falciparum malaria parasite clone D6 (chloroquine sensitive); experiment: In vitro anti-malarial activity, [3H]hypoxanthine uptake, D6 clone; type: cell-based, Plasmodium falciparum
Description: (§1) For in vitro toxicological studies, the following cell line was chosen: human adult liver epithelial cells (THLE-3). THLE-3 cells express phenotypic characteristics of normal adult liver epithelial cells and constitute a valuable model for pharmacotoxicological studies.
(§2) Two P. falciparum malaria parasite clones, W2 and D6, from Malaria Research and Reference Reagent Resource Center (MR4), were utilized in susceptibility testing. […] Test compounds were initially dissolved in DMSO and diluted 400 fold in RPMI 1640 culture medium supplemented with 25 mM Hepes, 32 mM NaHCO3 and 10% Albumax I (Gibco, N.Y.). These solutions were subsequently serially diluted two-fold with a Beckman Biomek® 1000 Robot (Fullerton, Calif.) over 11 different concentrations. The parasites were exposed to serial dilutions of each compound for 48 hrs and incubated at 37° C. with 5% O2, 5% CO2 and 90% N2 prior to the addition of [^3H]hypoxanthine. After a further incubation of 18 hrs, parasite DNA was harvested from each microtiter well using Packard Filtermate™ 196 Harvester (Meriden, Conn.) onto glass filters. Uptake of [^3H]hypoxanthine was measured with a Packard TopCount Liquid Scintillation Counter (Packard Instrument Co.).

[2] = system: P. falciparum malaria parasite clone W2 (chloroquine resistant); experiment: In vitro anti-malarial activity, [3H]hypoxanthine uptake, W2 clone; type: cell-based, Plasmodium falciparum
Description: as §1, §2

[3] = system: human adult liver epithelial cells (THLE-3); experiment: In vitro toxicity evaluation, Sulforhodamine B; type: cell-based; conditions: for IC50: Homo sapiens, read-out: IC50 THLE-3; for Selectivity, IC50 (THLE-3)/IC50 (D6): ratio THLE-3 vs D6
Experimental: as §1
Human adult liver epithelial cells (THLE-3) was maintained in tissue culture flasks in Waymouth's medium (Gibco, N.Y.) supplemented with 10% fetal bovine serum. Toxicity tests were performed in 96-well tissue culture plates using the protein-binding dye Sulforhodamine B. Test compounds were serially diluted and added to empty wells of the 96-well plate. THLE-3 cells in their culture medium were immediately seeded into the wells. Solvent blanks (no compound) were run in each test. After 72 hours under culture conditions cells were fixed to the plate by layering 50% TCA (4° C.) over the growth media in each well to produce a final TCA concentration of 10%. After incubating for one hour at 4° C., cultures were washed five times with tap water and left air-dried. Wells were stained for 30 min. with 0.4% (w/v) SRB in 1% acetic acid and washed four times with 1% acetic acid. Cultures were left air-dried and bound dye was solubilized with 10 mM Tris base (pH 10.5) for 15 min. on a gyratory shaker at room temperature. A Spectra MAX Plus Microtiter Plate Reader (Molecular Devices, Menlo Park, Calif.) was used to measure the optical density at wavelengths of 490-530 nm.

P. berghei in mice [4] = type: in vivo; conditions: for toxicity in mice: highest dose tested; for toxicity in mice / blood schizonticidal activity, in words: oral
Experimental: Drugs were mixed in 0.5% hydroxycellulose 0.1% Tween 80 and administered orally b.i.d. on days 3, 4 and 5 postinfection. CD-1 male or female mice, 5 weeks of age, were infected with 5×10^4 parasitized erythrocytes of Plasmodium berghei KBG-173 mm strain. Blood films were taken on day +6 and weekly thereafter until day +60. Parasitemias were calculated and SD90 value (dose suppressing 90% of the parasites in treated groups compared with the infected non-treated controls) on day +6 postinfection. Mortality data was tabulated for 60 days at which time all mice surviving that were blood film negative were considered cured.
[…] The activity of these compounds were compared with the untreated control: In untreated controls, death occurs within 8-9 days. Compounds which are effective against Plasmodium berghei infection increase the mean survival time of the infected animals when compared with the untreated controls. Mice that survive after thirty days and are free of parasites in blood are considered cured.
Efficacy of the drug is determined by the number of cures at the end of a 30 day period and the increase in mean survival time over the control (ΔMST). The effect of the test drugs also could be determined by the reduction of the parasitemia (percentage of the red blood cells detected with the parasites) over the untreated control on day 6, one day after the treatment is completed. Both these methods yield virtually identical results. If the dose of test compounds are inadequate, after initial clearance, residual parasites will multiply and relapses will occur within thirty days.

P. berghei in mice [5] = experiment: Suppressive blood schizontocidal test in mice, subcutaneous single dose; type: in vivo, Plasmodium berghei; conditions: for Mice surviving 60 days/Mice infected and treated: 72 h after infection
Experimental: Mice were treated with a single dose of the compound administered subcutaneously 72 h after infection. Number of cures is the number of mice surviving, out of five, 60 days postinfection.

[6] = system: Plasmodium berghei KBG-173 in mice; experiment: Prophylactic test in mice, oral; type: in vivo; conditions: for Mice infected and treated/Mice surviving day 60: oral; for protection from malaria (oral prophylactic activity): single dose of 0.5 mg/kg within 2 days pre-infection through 2 days post-infection
Experimental: Compounds were tested for oral prophylactic activity.
Drugs were mixed in 0.5% hydroxycellulose 0.1% Tween 80 and administered orally b.i.d. either on day 5, 4, 3, 2, or 1 prior to the infection or 1 or 2 days postinfection. CD-I male or female mice, 5 weeks of age, were infected with 5×10^4 parasitized erythrocytes of Plasmodium berghei KBG-173 mm strain. Blood films were taken on day +6 and weekly thereafter until day+30. […]

[7] = oral dose 0.25 mg/kg/day (total dose 0.75 mg/kg)
[8] = oral dose 1.0 mg/kg/day (total dose 3.0 mg/kg)
[9] = oral dose 4.0 mg/kg/day (total dose 12 mg/kg)
[10] = oral dose 16 mg/kg/day (total dose 48 mg/kg)
[11] = oral dose 64 mg/kg/day (total dose 192 mg/kg)
[12] = Plasmodium falciparum, D6; read-out: IC50 D6 Strain
[13] = Plasmodium falciparum, W2; read-out: IC50 W2 Strain
[14] = THLE3, THLE-3 cells, 72 hours, toxicity
[15] = subcutaneous single dose 1 mg/kg
[16] = subcutaneous single dose 2 mg/kg
[17] = subcutaneous single dose 4 mg/kg
[18] = subcutaneous single dose 8 mg/kg
[19] = subcutaneous single dose 16 mg/kg
[20] = subcutaneous single dose 32 mg/kg
[21] = subcutaneous single dose 64 mg/kg
[22] = subcutaneous single dose 128 mg/kg
[23] = day of treatment 1, dose 0.5 mg/kg
[24] = day of treatment 1, dose 2 mg/kg
[25] = day of treatment 1, dose 8 mg/kg
[26] = day of treatment 1, dose 32 mg/kg
[27] = day of treatment 2, dose 0.5 mg/kg
[28] = day of treatment 2, dose 2 mg/kg
[29] = day of treatment 2, dose 8 mg/kg
[30] = day of treatment 2, dose 32 mg/kg
[31] = day of treatment −1, dose 0.5 mg/kg
[32] = day of treatment −1, dose 2 mg/kg
[33] = day of treatment −1, dose 8 mg/kg
[34] = day of treatment −1, dose 32 mg/kg
[35] = day of treatment −2, dose 0.5 mg/kg
[36] = day of treatment −2, dose 2 mg/kg
[37] = day of treatment −2, dose 8 mg/kg
[38] = day of treatment −2, dose 32 mg/kg

Compound	Selectivity, IC50 (THLE-3)/IC50 (D6) [3]	Mice surviving 60 days/Mice infected and treated (P. berghei in mice [4]; [7])	Mice surviving 60 days/Mice infected and treated (P. berghei in mice [4]; [8])	Mice surviving 60 days/Mice infected and treated (P. berghei in mice [4]; [9])	Mice surviving 60 days/Mice infected and treated (P. berghei in mice [4]; [10])	Mice surviving 60 days/Mice infected and treated (P. berghei in mice [4]; [11])	IC50 [1, 12] [ng/mL]	IC50 [2, 13] [ng/mL]	IC50 [3, 14] [ng/mL]	inhibitory activity against chloroquine sensitive malaria strain (D-6), in words ([1]; in vitro)	inhibitory activity against chloroquine resistant malaria strain (W-2), in words ([2]; in vitro)	toxicity in mice (P. berghei in mice [4])	blood schizonticidal activity, in words (P. berghei in mice [4])	activity by the subcutaneous route of administration, in words (P. berghei in mice [5])	Mice surviving 60 days/Mice infected and treated (P. berghei in mice [5]; [15])	Mice surviving 60 days/Mice infected and treated (P. berghei in mice [5]; [16])	Mice surviving 60 days/Mice infected and treated (P. berghei in mice [5]; [17])	Mice surviving 60 days/Mice infected and treated (P. berghei in mice [5]; [18])	Mice surviving 60 days/Mice infected and treated (P. berghei in mice [5]; [19])	Mice surviving 60 days/Mice infected and treated (P. berghei in mice [5]; [20])	further results
CCN(CC)CCCC(C)Nc1ccnc2cc(Cl)ccc12 (stereo not shown) [Chloroquine, reference compound]	463	0/7	0/7	2/7	4/7	0/7															IC50 ([1]; Plasmodium falciparum, D6, read-out: IC50 D6 Strain): 6.3 ng/mL (≈ 0.0197 µM); IC50 ([2]; Plasmodium falciparum, W2, read-out: IC50 W2 Strain): 108 ng/mL (≈ 0.338 µM); IC50 ([3]; THLE3, 72 h): 2920 ng/mL (≈ 9.13 µM)
OC(c1cc(C(F)(F)F)nc2c(C(F)(F)F)cccc12)C1CCCCN1 (stereo not shown) [Mefloquine, reference compound]	794						3.4 (≈ 0.00899 µM)	5.6 (≈ 0.0148 µM)	2700 (≈ 7.14 µM)												
C=C[C@@H]1[C@@H](OC)[C@H](OC)[C@@]23CC24c2cc5cc(OC)ccc5nc2C(=O)N[C@H]4CN13 (stereo partly shown) [Formula I]	4.1 × 10^4	7/7	7/7	7/7	7/7	7/7	0.47	0.43	19400	equally potent inhibitory activity	equally potent inhibitory activity	no mice showed toxicity	very active	excellent activity	4/5	5/5	5/5	5/5	5/5	5/5	Mice surviving 60 days/Mice infected and treated (P. berghei in mice [5]; [21]): 5/5; Mice surviving 60 days/Mice infected and treated (P. berghei in mice [5]; [22]): 5/5; Mice infected and treated/Mice surviving day 60 [6, 23]: 5/5; Mice infected and treated/Mice surviving day 60 [6, 24]: 5/5; Mice infected and treated/Mice surviving day 60 [6, 25]: 5/5; Mice infected and treated/Mice surviving day 60 [6, 26]: 5/5; Mice infected and treated/Mice surviving day 60 [6, 27]: 5/5; Mice infected and treated/Mice surviving day 60 [6, 28]: 5/5; Mice infected and treated/Mice surviving day 60 [6, 29]: 5/5; Mice infected and treated/Mice surviving day 60 [6, 30]: 5/5; Mice infected and treated/Mice surviving day 60 [6, 31]: 5/5; Mice infected and treated/Mice surviving day 60 [6, 32]: 5/5; Mice infected and treated/Mice surviving day 60 [6, 33]: 5/5; Mice infected and treated/Mice surviving day 60 [6, 34]: 5/5; Mice infected and treated/Mice surviving day 60 [6, 35]: 5/5; Mice infected and treated/Mice surviving day 60 [6, 36]: 5/5; Mice infected and treated/Mice surviving day 60 [6, 37]: 5/5; Mice infected and treated/Mice surviving day 60 [6, 38]: 5/5; protection from malaria (oral prophylactic activity) [6]: completely protected
C=C[C@@H]1[C@H]2OCOC2[C@@]23CC24c2nc5ccc(OC)cc5cc2C(=O)N[C@H]4CN13 (stereo partly shown) [Formula II]	7.0 × 10^4	7/7	7/7	7/7	7/7	7/7	0.29	0.33	18900	equally potent inhibitory activity	equally potent inhibitory activity	no mice showed toxicity	very active	excellent activity	4/5	5/5	5/5	5/5	5/5	5/5	Mice surviving 60 days/Mice infected and treated (P. berghei in mice [5]; [21]): 5/5; Mice surviving 60 days/Mice infected and treated (P. berghei in mice [5]; [22]): 5/5; Mice infected and treated/Mice surviving day 60 [6, 23]: 5/5; Mice infected and treated/Mice surviving day 60 [6, 24]: 5/5; Mice infected and treated/Mice surviving day 60 [6, 25]: 5/5; Mice infected and treated/Mice surviving day 60 [6, 26]: 5/5; Mice infected and treated/Mice surviving day 60 [6, 27]: 5/5; Mice infected and treated/Mice surviving day 60 [6, 28]: 5/5; Mice infected and treated/Mice surviving day 60 [6, 29]: 5/5; Mice infected and treated/Mice surviving day 60 [6, 30]: 5/5; Mice infected and treated/Mice surviving day 60 [6, 31]: 5/5; Mice infected and treated/Mice surviving day 60 [6, 32]: 5/5; Mice infected and treated/Mice surviving day 60 [6, 33]: 5/5; Mice infected and treated/Mice surviving day 60 [6, 34]: 5/5; Mice infected and treated/Mice surviving day 60 [6, 35]: 5/5; Mice infected and treated/Mice surviving day 60 [6, 36]: 5/5; Mice infected and treated/Mice surviving day 60 [6, 37]: 5/5; Mice infected and treated/Mice surviving day 60 [6, 38]: 5/5; protection from malaria (oral prophylactic activity) [6]: completely protected

— patent US7851508B2, “Natural product derivatives with antimalarial activity” (Radix Pharmaceuticals, Inc., priority 2008, dated 2010)
